Patent EP0189101A2, “Compounds having mucolytic and bronchodilating activity, a process for their preparation and pharmaceutical composition containing them as active principle” (PROTER S.p.A., priority 1985, dated 1986)

Key:
[1] = system: spasm induced by histamine; assay: Konzett-Rossler test, spasm induced by histamine; assay type: in vivo; conditions: spasm induced by histamine (2 mcg/kg/e.v.); guinea pig
Description: (§1) (0.0276-0.1406), like that of theophylline of 0.0395 mM/kg/e.v. […] (0.0133-0,893) which is definitely and significatively lower than that of theophylline (0.1026 (0.0508-0.2072). The bronchodilating activity of the compounds of formula I is consequently definitely higher than that of theophylline.

[2] = system: fluid of the respiratory tract; assay: mucolytic-expectorant activity, fluorescein elimination in the fluid of the respiratory tract; assay type: in vivo; conditions: 1 mM/kg/os; in comparison with the controls
suspension of 4% mucine = assay: in vitro mucolytic activity, viscosity of a 4% mucine suspension; assay type: biochemical; conditions: 0,00625 M, after hydrolysis with rat serum
Description: More specifically in the test of "in vitro" mucolytic activity with a suspension of 4% mucine (II Farmaco, ed.prat.33-379, 1978), and the molar concentration being the same (0,00625 M), after hydrolysis with rat serum, the 2-f(theophyllin-7-yl)-methyloxysuccinoylthiSïpropionamido acetic acid caused a reduction of viscosity by 11,2% to take place, which is like that of tiopronin (11,5%) and higher than that of N-acetylcysteine (7,6%).

acute toxicity = conditions: in vivo, ip; female mouse
[3] = system: spasm induced by acetylcholine; assay: Konzett-Rossler test, spasm induced by acetylcholine; assay type: in vivo; conditions: spasm induced by acetylcholine (10 mcg/kg/e.v.); guinea pig
Description: as §1

[4] = system: shock induced by histamine; assay: antibronchospastic activity, shock induced by histamine; assay type: in vivo; conditions: 0.25 mM/kg/i.p.; guinea pig; value after treatment
[5] = system: cough induced by citric acid; assay: anticough activity, cough induced by citric acid; conditions: guinea pig

| SMILES | ED [1] | increase of the escretion of the colouring compound [2] | reduction of viscosity (suspension of 4% mucine) | LD50 (acute toxicity) | ED50 [3] | shock resistance [4] | reduction of the cough ([5]; 100 mg/kg/i.p., in comparison with the controls) | reduction of the cough ([5]; 5 mg/kg/i.p.) |
| --- | --- | --- | --- | --- | --- | --- | --- | --- |
| CC(SC(=O)CCC(=O)OCn1cnc2c1c(=O)n(C)c(=O)n2C)C(=O)NCC(=O)O (centres unmarked) [2-[(theophyllin-7-yl)methyloxysuccinoylthio]-propionamido acetic acid] | 0.0345 mM/kg/e.v. | 86% | 11,2% | 481 mg/kg | 0.0623 mM/kg/e.v. | 291.7 ± 43.2 s | 79% | – |
| Cn1c(=O)c2[nH]cnc2n(C)c1=O [theophylline] | 0.1026 (0.0508-0.2072) mM/kg/e.v. | – | – | – | 0.0395 mM/kg/e.v. | 316.8 ± 27.3 s | – | – |
| CC(S)C(=O)NCC(=O)O (centres unmarked) [tiopronin] | – | 94% | 11,5% | – | – | – | – | – |
| COc1ccc2c3c1O[C@H]1[C@@H](O)C=C[C@H]4[C@@H](C2)N(C)CC[C@@]341 [codeine phosphate] | – | – | – | – | – | – | – | 87% |
| CC(=O)N[C@@H](CS)C(=O)O [N-acetylcysteine] | – | – | 7,6% | – | – | – | – | – |
